Measured values from paper PMC5407577, “Functional and genetic evidence that nucleoside transport is highly conserved in Leishmania species: Implications for pyrimidine-based chemotherapy” (International Journal for Parasitology: Drugs and Drug …, 2017).
Where two headings read alike, the source gives them in different places.

Columns and labels:
LmajNT1 [1] = assay: [3H]-uridine uptake by L. major promastigotes, low-affinity component; type: cell-based, Leishmania major; settings: inhibition of 0.25 μM [3H]-uridine uptake
Procedure: (§1) Using the standard uptake technique as described for T. brucei and Leishmania species ([Wallace et al., 2002], [Al-Salabi and De Koning, 2005], [Gudin et al., 2006]), the dose- or time-dependent uptake of radiolabeled permeants was investigated.
(§2) Briefly, cells in the mid-to-late logarithmic stage of growth were harvested by centrifugation for 10 min at 1500×g. The cells were washed twice with transport assay buffer (AB: 33 mM HEPES, 98 mM NaCl, 4.6 mM KCl, 0.55 mM CaCl2, 0.07 mM MgSO4, 5.8 mM NaH2PO4, 0.3 mM MgCl2, 23 mM NaHCO3, 14 mM glucose, pH 7.3), resuspended at a density of 10^8 cells ml^−1 in AB, and left for 20–30 min at room temperature to recover from centrifugation stress. One hundred microliters of cell suspension was incubated at ambient temperature for a predetermined time with 100 μl radiolabeled test compound, in the presence or absence of unlabeled substrate or other competitive inhibitors. The incubation was terminated by the addition of ice-cold stop solution (AB containing saturating levels, usually 10 mM, of unlabeled permeant) and centrifugation through oil for 1 min at 13,000 × g. […] Radioactivity was determined by liquid scintillation counting in a Beckman LS6000 TA scintillation counter. Saturation data, inhibition data, and time courses were plotted to equations for linear or non-linear regression (hyperbolic or sigmoid curves), as appropriate. All experiments were performed in triplicate and on at least three independent occasions.

LmajNT1 [2] = assay: [3H]-thymidine uptake by L. major promastigotes; type: cell-based, Leishmania major
Procedure: as §1, §2
Subsequent experiments were performed with a 5 min incubation time.

LmajUUT1 = assay: [3H]-uridine uptake by L. major promastigotes, high-affinity uracil-sensitive component; type: cell-based, Leishmania major; settings: inhibition of 0.25 μM [3H]-uridine uptake
Procedure: as §1, §2

LmexUU1 = type: cell-based, Leishmania mexicana
Procedure: as §1, §2

[3] = tested on: L. mexicana promastigotes WT; assay: Alamar blue drug sensitivity assay, L. mexicana WT; type: cell-based, Leishmania mexicana; settings: for EC50: Leishmania mexicana, 72 h, WT promastigotes, 72 h + 48 h with dye, n ≥ 4, read-out: EC50; for activity against L. mexicana promastigotes: at concentrations up to 5 mM
Procedure: (§3) Sensitivity assays of Leishmania strains to various drugs using the viability dye resazurin (Alamar Blue) (Sigma-Aldrich) were performed using a protocol adapted from [Räz et al. (1997)], as described ([Al-Salabi et al., 2003], [Gould et al., 2008]). Pentamidine and diminazene were used as non-nucleoside controls and were obtained from Sigma-Aldrich, as were many purines, pyrimidines, and analogs, with the exceptions of 2-thiouridine and 4-thiouridine (TriLink BioTechnologies, San Diego, CA); 5′-deoxyuridine, and 2′-3′-dideoxyuridine (Carbosynth, Compton, UK); 5-fluoro-2′-deoxyuridine (Fluka); and 2-thiouracil (ICN Biomedicals, Cambridge, UK). A preliminary promastigote culture was diluted to a density of 2 × 10^6 cells/ml, of which 100 μl was added to wells of 96-well plates pre-loaded with 100 μl of doubling dilutions of test compounds, resulting in a final density of 1 × 10^6 cells/ml; the dilutions were over 2 rows of the plate (23 concentrations), with the last well containing only medium and serving as the no-drug control. The plates were incubated at 25 °C for 72 h before adding the Alamar Blue dye (20 μl of 12.5 mg resazurin sodium salt (Sigma) in 100 ml phosphate buffered saline (PBS; pH 7.4)). Since Leishmania parasites metabolize the Alamar Blue dye slower than trypanosomes ([Gould et al., 2008]), the cells were incubated with the dye for a further period of 48 h before measuring the fluorescence, using a FLUOstar Optima fluorimeter (BMG Labtech) at wavelengths of 544 nm for excitation and 620 nm for emission. […] Each experiment was performed independently at least 4 times; statistical significance was determined using Student's unpaired t-test.

Lmaj5F2′dURes = assay: microbe, parasite or virus in culture; type: cell-based, Leishmania major; settings: for EC50: Leishmania major; for RF (Resistance Factor = IC50 (resistant clone)/IC50 (WT)): Lmaj5F2′dURes vs L. major WT
Procedure: as §3

Lmaj5FURes = assay: microbe, parasite or virus in culture; type: cell-based, Leishmania major; settings: for EC50: Leishmania major; for RF (Resistance Factor = IC50 (resistant clone)/IC50 (WT)): Lmaj5FURes vs L. major WT
Procedure: as §3

L. major promastigotes = assay: metabolomic analysis of treated L. major promastigotes; type: cell-based, Leishmania major; settings: 100 μM, 8 h; for dCMP peak intensity: n = 3, SEM, untreated: not detected (<500); for dUrd peak intensity: untreated: 712 ± 105; for dCTP peak intensity: untreated: 995 ± 109; for dAdo peak intensity: untreated: 2992 ± 173; for dAMP peak intensity: untreated: 6192 ± 910; for dADP peak intensity / dCDP peak intensity: untreated: not detected
Procedure: (§4) Metabolomics analysis of the Leishmania promastigotes was undertaken in triplicate, exactly as described ([Ali et al., 2013a]). Briefly, cells were grown to log phase stage, resuspended at 2 × 10^6 cells/ml in 50 ml HOMEM/FBS and incubated 8 h with 100 μM of test compound (standard conditions) before transfer to a 50-ml centrifuge tube for instantaneous cooling (dry ice/ethanol bath, 4 °C) and centrifugation (2500 rpm, 10 min, 4 °C). The pellet was lysed with 200 μl of chloroform/methanol/water (1:3:1 v/v/v) containing mass spectrometry standards, and vigorous mixing (1 h, 4 °C); cell debris was removed by centrifugation and the metabolite extracts were stored in HPLC vials at −80 °C. Control samples were prepared in parallel and included untreated cells, unused growth medium, test compound solution and extraction solvent blanks. The analysis used a hydrophilic interaction liquid chromatography (HILIC-LC) fitted with a zwitterionic ZIC-pHILIC column (Merck Sequant), coupled to high resolution mass spectrometry (MS) using a Thermo Q-Exactive, and metabolomic data outputs were analyzed using the IDEOM application (http://mzmatch.sourceforge.net/ideom.php) with default parameters ([Creek et al., 2012]) exactly as described ([Ali et al., 2013a]). The lower limit of detection was set to 500 intensity units for all reported metabolites, in order to prevent spurious identification of low level signals.
(§5) The mechanism of action of the fluorinated pyrimidines was investigated using a metabolomics approach, where promastigotes of L. mexicana and L. major were incubated for 8 h with 100 μM of either 5-FU, 5F-2′dUrd or 5F-Urd prior to metabolite extraction and mass spectrometric analysis as described ([Ali et al., 2013a], [Alkhaldi et al., 2015]). These conditions were chosen to allow for significant metabolite accumulation while not affecting cell viability or growth rate, which could broadly affect metabolite levels.

[4] = tested on: L. mexicana promastigotes; assay: metabolomic analysis of treated L. mexicana promastigotes; type: cell-based, Leishmania mexicana; settings: 100 μM, 8 h; for dCMP peak intensity: n = 3, SEM, untreated: not detected (<500); for dUrd peak intensity: untreated: 304 ± 155; for dADP peak intensity: untreated: 1458; for dAdo peak intensity: untreated: 2585 ± 811; for dCDP peak intensity / dCTP peak intensity: untreated: not detected
Procedure: as §4, §5

Lmex5F2′dURes = assay: microbe, parasite or virus in culture; type: cell-based, Leishmania mexicana; settings: for EC50: Leishmania mexicana; for RF (Resistance Factor = IC50 (resistant clone)/IC50 (WT)): Lmex5F2′dURes vs L. mexicana WT
Procedure: as §3

Lmex5FURes = assay: microbe, parasite or virus in culture; type: cell-based, Leishmania mexicana; settings: for EC50: Leishmania mexicana; for RF (Resistance Factor = IC50 (resistant clone)/IC50 (WT)): Lmex5FURes vs L. mexicana WT
Procedure: as §3

[5] = tested on: L. major promastigotes WT; assay: Alamar blue drug sensitivity assay, L. major WT; type: cell-based, Leishmania major; settings: for EC50: Leishmania major, WT promastigotes, 72 h + 48 h with dye, n ≥ 4, read-out: EC50
Procedure: as §3

LmexNT1 = type: cell-based, Leishmania mexicana; settings: inhibition of 0.25 μM [3H]-uridine uptake in the presence of 1 mM uracil
Procedure: as §1, §2

[6] = inhibition of 0.25 μM [3H]-thymidine uptake (total LmajNT1.1 + LmajNT1.2), 5 min

SMILES | Ki (LmajNT1 [2]; [6]) | EC50 [3] | EC50 (Lmaj5F2′dURes) | RF (Resistance Factor = IC50 (resistant clone)/IC50 (WT)) (Lmaj5F2′dURes) | EC50 (Lmaj5FURes) | RF (Resistance Factor = IC50 (resistant clone)/IC50 (WT)) (Lmaj5FURes) | dCMP peak intensity (L. major promastigotes) | dUrd peak intensity (L. major promastigotes) | dCTP peak intensity (L. major promastigotes) | dAdo peak intensity (L. major promastigotes) | dAMP peak intensity (L. major promastigotes) | dADP peak intensity (L. major promastigotes) | dCDP peak intensity (L. major promastigotes) | dCMP peak intensity [4] | dUrd peak intensity [4] | dADP peak intensity [4] | dAdo peak intensity [4] | dCDP peak intensity [4] | dCTP peak intensity [4] | EC50 (Lmex5F2′dURes) | also measured
O=c1ccn([C@H]2C[C@H](O)[C@@H](CO)O2)c(=O)[nH]1 [2′-deoxyuridine] | 112 ± 17 µM | – | – | – | – | – | – | – | – | – | – | – | – | – | – | – | – | – | – | – | Ki (LmajNT1 [1]): 24.9 ± 8.6 µM; Ki (LmajUUT1): 24.9 ± 8.6 µM; Ki (LmexUU1; inhibition of [3H]-uracil uptake, 4 min): 9.3 ± 2.6 µM; maximal inhibition of [3H]-uracil transport (LmexUU1; n = 3): approximately 85%
O=c1[nH]c(=O)n([C@H]2C[C@H](O)[C@@H](CO)O2)cc1F [5F-2′dUrd, 5-Fluoro-2′-deoxyuridine] | – | ~1.5 µM | 381 ± 83 µM | 224 | 6.1 ± 0.5 µM | 3.6 | not detected | 7615 ± 1236^∗ arbitrary units | 7036 ± 1684 arbitrary units | 14181 ± 3275 arbitrary units | 14740 ± 2815 arbitrary units | 6493 ± 3261 arbitrary units | 6617 ± 188^∗∗∗ arbitrary units | 6006 ± 3089 arbitrary units | 5414 ± 717^∗ arbitrary units | 8367 ± 1844^∗ arbitrary units | 5412 ± 1699 arbitrary units | 4451 ± 1188^∗ arbitrary units | 1569 ± 244 arbitrary units | > 5000 µM | Ki (LmajNT1 [2]): 29.7 ± 2.1 µM; dTTP intensity ([4]; detection limit 500 units (Fig. 13F)): Not detectable; RF (Resistance Factor = IC50 (resistant clone)/IC50 (WT)) (Lmex5F2′dURes): >3500; EC50 (Lmex5FURes): 1.5 ± 0.2 µM; RF (Resistance Factor = IC50 (resistant clone)/IC50 (WT)) (Lmex5FURes): 1.07; EC50 ([5]; 72 h): ~1.5 µM; Ki (LmexNT1): 6.99 ± 0.11 µM
O=c1[nH]c(=O)n([C@@H]2O[C@H](CO)[C@@H](O)[C@H]2O)cc1F [5F-Urd, 5-Fluorouridine] | 23.4 ± 1.3 µM | > 5000 µM | 1230 ± 340 µM | 68 | 110 ± 17 µM | 6.1 | 6744 ± 3500 arbitrary units | 8145 ± 1684^∗ arbitrary units | 5477 ± 1350^∗ arbitrary units | 11818 ± 839^∗∗ arbitrary units | 18001 ± 2307^∗ arbitrary units | 6482 ± 3260 arbitrary units | 6904 ± 384^∗∗ arbitrary units | 12757 ± 1038^∗∗ arbitrary units | 6439 ± 456^∗ arbitrary units | 9404 ± 1389^∗ arbitrary units | 8045 ± 4537 arbitrary units | 10404 ± 1470^∗ arbitrary units | 2338 ± 428^∗ arbitrary units | > 5000 µM | activity against L. mexicana promastigotes [3]: insensitive; activity against L. mexicana promastigotes ([3]; listed as 5-fluorouridine): no activity; dAMP peak intensity ([4]; untreated: 10660 ± 2897): 21978 ± 1784^∗∗ arbitrary units; RF (Resistance Factor = IC50 (resistant clone)/IC50 (WT)) (Lmex5F2′dURes): 1; EC50 (Lmex5FURes): > 5000 µM; RF (Resistance Factor = IC50 (resistant clone)/IC50 (WT)) (Lmex5FURes): 1; concentrations that killed promastigotes [5]: below 20 μM; EC50 [5]: 18 ± 1.6 µM
